Results as given in paper PMC9652372, “Glycolytic flux control by drugging phosphoglycolate phosphatase” (Nature Communications, 2022).
Where “and” joins values, the source holds several entries; their conditions need not be identical. Equal entries are not always repeated. Entries after “also recorded” stand apart in the source; their conditions may differ.

What was measured:
HT1080 cells [1] = assay: Lipid droplet staining (perilipin-3); format: cell-based, human
Experimental: Cells were fixed for 15 min with 4% para-formaldehyde, permeabilized and blocked with 0.2% saponin/2% bovine serum albumin (BSA) for 1 hr, and immunostained for 1 hr using α-rabbit TIP47/perilipin 3 antibodies (1:100 dilution, abcam #47638) in 0.2% saponin/1% BSA. Primary antibodies were detected with Alexa Fluor 488-labeled goat anti-rabbit secondary antibodies (1:400; Molecular Probes/Thermo Fisher Scientific), and nuclei were counterstained with DAPI. Cells were mounted with Immu-Mount (Fisher Scientific), and imaged by fluorescence microscopy on a THUNDER imager (THUNDER Imager Live Cell & 3D Cell Culture & 3D Assay system, Leica DMI8; Leica Microsystems), using a 63 × objective and the Leica Application suite X software 3.7.4.23463. To determine the number of lipid droplets per cell, cell borders were defined semi-automatically, and bright objects in this region of interest were counted using the ImagePro-Plus software version 7.0. Statistical significance was assessed using GraphPad Prism 9.4.1 software.

HT1080 cells [2] = assay: NMR quantification of cellular metabolites; format: cell-based, human; as to 1-Methylnicotinamide (NMR metabolite level): unit not given here; as to Acetic acid (NMR metabolite level): unit not given here; as to Glutathione (NMR metabolite level): unit not given here; as to Glycerol 3-phosphate (NMR metabolite level): unit not given here; as to Glycine (NMR metabolite level): unit not given here; as to L-Lactic acid (NMR metabolite level): unit not given here; as to L-Lysine (NMR metabolite level): unit not given here; as to L-Tyrosine (NMR metabolite level): unit not given here; as to L-Valine (NMR metabolite level): unit not given here; as to Phosphocreatine (NMR metabolite level): unit not given here; as to Pyroglutamate (NMR metabolite level): unit not given here; as to Taurine (NMR metabolite level): unit not given here; as to Tryptophan (NMR metabolite level): unit not given here

Structure (SMILES): O=C(Nc1ccccc1C(=O)O)c1ccc(Oc2ccc(C(=O)Nc3ccccc3C(=O)O)cc2)cc1 [CP1]
- lipid droplet (LD) accumulation (HT1080 cells [1]): time- and concentration-dependent accumulation of LDs; also recorded: effectively increased LDs in PGP-WT but not in PGP-KO cells
- change of acetate levels (HT1080 cells [2]; HT1080 cells, 3 h, 33 µM CP1): −42%
- change of alanine levels (HT1080 cells [2]; HT1080 cells, 3 h, 33 µM CP1): −52%
- change of lactate levels (HT1080 cells [2]; HT1080 cells, 3 h, 33 µM CP1): −45%
- change of pyruvate levels (HT1080 cells [2]; HT1080 cells, 3 h, 33 µM CP1): −10%
- 1-Methylnicotinamide (NMR metabolite level) (HT1080 cells [2]; T3: 3h CP1-treated, Exp #1-5): 0.0004582 and 0.0004235 and 0.0007003 and 0.0006519 and 0.0004828
- 2-Hydroxyglutarate (NMR metabolite level) (HT1080 cells [2]; T3: 3h CP1-treated, Exp #1-5): 0.01261 and 0.01491 and 0.01314 and 0.01427 and 0.01273
- ATP (NMR metabolite level) (HT1080 cells [2]; T3: 3h CP1-treated, Exp #1-5): 0.001497 and 0.001391 and 0.001868 and 0.001572 and 0.001599
- Acetic acid (NMR metabolite level) (HT1080 cells [2]; T3: 3h CP1-treated, Exp #1-5): 0.004551 and 0.004658 and 0.004836 and 0.004678 and 0.004285
- Choline (NMR metabolite level) (HT1080 cells [2]; T3: 3h CP1-treated, Exp #1-5): 0.0005498 and 0.0005142 and 0.0005336 and 0.0006902 and 0.0006337
- Creatine (NMR metabolite level) (HT1080 cells [2]; T3: 3h CP1-treated, Exp #1-5): 0.00675 and 0.006504 and 0.00667 and 0.008321 and 0.006277
- D-Glucose (NMR metabolite level) (HT1080 cells [2]; T3: 3h CP1-treated, Exp #1-5): 0.1212 and 0.1286 and 0.1124 and 0.1017 and 0.1229
- Dimethylamine (NMR metabolite level) (HT1080 cells [2]; T3: 3h CP1-treated, Exp #1-5): 0.03604 and 0.03364 and 0.02538 and 0.0283 and 0.03615
- Formic acid (NMR metabolite level) (HT1080 cells [2]; T3: 3h CP1-treated, Exp #1-5): 0.001497 and 0.001482 and 0.001868 and 0.001994 and 0.001569
- Fumaric acid (NMR metabolite level) (HT1080 cells [2]; T3: 3h CP1-treated, Exp #1-5): 0.0003054 and 0.0002722 and 0.0003001 and 0.0003451 and 0.0003319
- Glutathione (NMR metabolite level) (HT1080 cells [2]; T3: 3h CP1-treated, Exp #1-5): 0.01109 and 0.01041 and 0.01101 and 0.01265 and 0.01144
- Glycerol 3-phosphate (NMR metabolite level) (HT1080 cells [2]; T3: 3h CP1-treated, Exp #1-5): 0.005205 and 0.004086 and 0.005958 and 0.005982 and 0.004016
- Glycine (NMR metabolite level) (HT1080 cells [2]; T3: 3h CP1-treated, Exp #1-5): 0.01387 and 0.01388 and 0.01587 and 0.01515 and 0.01301
- Histidine (NMR metabolite level) (HT1080 cells [2]; T3: 3h CP1-treated, Exp #1-5): 0.001863 and 0.001573 and 0.001667 and 0.001611 and 0.00166
- L-Alanine (NMR metabolite level) (HT1080 cells [2]; T3: 3h CP1-treated, Exp #1-5): 0.003726 and 0.003932 and 0.003735 and 0.003681 and 0.003651
- L-Arginine (NMR metabolite level) (HT1080 cells [2]; T3: 3h CP1-treated, Exp #1-5): 0.003085 and 0.0036 and 0.003035 and 0.003183 and 0.004798
- L-Aspartic acid (NMR metabolite level) (HT1080 cells [2]; T3: 3h CP1-treated, Exp #1-5): 0.006078 and 0.006201 and 0.007304 and 0.006941 and 0.006337
- L-Glutamic acid (NMR metabolite level) (HT1080 cells [2]; T3: 3h CP1-treated, Exp #1-5): 0.03955 and 0.04114 and 0.04112 and 0.04632 and 0.04125
- L-Glutamine (NMR metabolite level) (HT1080 cells [2]; T3: 3h CP1-treated, Exp #1-5): 0.1032 and 0.09634 and 0.112 and 0.1011 and 0.1019
- L-Isoleucine (NMR metabolite level) (HT1080 cells [2]; T3: 3h CP1-treated, Exp #1-5): 0.008064 and 0.008046 and 0.007837 and 0.007708 and 0.008178
- L-Lactic acid (NMR metabolite level) (HT1080 cells [2]; T3: 3h CP1-treated, Exp #1-5): 0.03287 and 0.03079 and 0.03432 and 0.03474 and 0.0328
- L-Leucine (NMR metabolite level) (HT1080 cells [2]; T3: 3h CP1-treated, Exp #1-5): 0.008094 and 0.008077 and 0.008637 and 0.008321 and 0.007846
- L-Lysine (NMR metabolite level) (HT1080 cells [2]; T3: 3h CP1-treated, Exp #1-5): 0.005651 and 0.005687 and 0.005569 and 0.005062 and 0.005432
- L-Methionine (NMR metabolite level) (HT1080 cells [2]; T3: 3h CP1-treated, Exp #1-5): 0.002474 and 0.002571 and 0.002635 and 0.002454 and 0.002656
- L-Phenylalanine (NMR metabolite level) (HT1080 cells [2]; T3: 3h CP1-treated, Exp #1-5): 0.004704 and 0.004749 and 0.004702 and 0.00464 and 0.004708
- L-Threonine (NMR metabolite level) (HT1080 cells [2]; T3: 3h CP1-treated, Exp #1-5): 0.0135 and 0.01422 and 0.01357 and 0.01411 and 0.01304
- L-Tyrosine (NMR metabolite level) (HT1080 cells [2]; T3: 3h CP1-treated, Exp #1-5): 0.004795 and 0.004537 and 0.004569 and 0.004755 and 0.004798
- L-Valine (NMR metabolite level) (HT1080 cells [2]; T3: 3h CP1-treated, Exp #1-5): 0.007911 and 0.008379 and 0.00757 and 0.007631 and 0.008117
- NAD+ (NMR metabolite level) (HT1080 cells [2]; T3: 3h CP1-treated, Exp #1-5): 0.001405 and 0.001331 and 0.001634 and 0.001764 and 0.001509
- Phosphocreatine (NMR metabolite level) (HT1080 cells [2]; T3: 3h CP1-treated, Exp #1-5): 0.002352 and 0.00245 and 0.002668 and 0.002838 and 0.002474
- Phosphorylcholine (NMR metabolite level) (HT1080 cells [2]; T3: 3h CP1-treated, Exp #1-5): 0.007361 and 0.007078 and 0.008004 and 0.008743 and 0.00688
- Pyroglutamate (NMR metabolite level) (HT1080 cells [2]; T3: 3h CP1-treated, Exp #1-5): 0.007789 and 0.006927 and 0.008071 and 0.008015 and 0.007303
- Pyruvate (NMR metabolite level) (HT1080 cells [2]; T3: 3h CP1-treated, Exp #1-5): 0.004887 and 0.004931 and 0.004602 and 0.004755 and 0.004949
- Serine (NMR metabolite level) (HT1080 cells [2]; T3: 3h CP1-treated, Exp #1-5): 0.006414 and 0.007411 and 0.00707 and 0.007401 and 0.006729
- Succinic acid (NMR metabolite level) (HT1080 cells [2]; T3: 3h CP1-treated, Exp #1-5): 0.001344 and 0.001543 and 0.001501 and 0.001841 and 0.001207
- Taurine (NMR metabolite level) (HT1080 cells [2]; T3: 3h CP1-treated, Exp #1-5): 0.006506 and 0.007653 and 0.005636 and 0.009663 and 0.004858
- Tryptophan (NMR metabolite level) (HT1080 cells [2]; T3: 3h CP1-treated, Exp #1-5): 0.0008552 and 0.0007865 and 0.0009671 and 0.0008436 and 0.0007846
